For assay [1], the target named is T1, B1 bradykinin receptor (Homo sapiens, UniProt P46663).
T1 sequence (P46663 whole entry): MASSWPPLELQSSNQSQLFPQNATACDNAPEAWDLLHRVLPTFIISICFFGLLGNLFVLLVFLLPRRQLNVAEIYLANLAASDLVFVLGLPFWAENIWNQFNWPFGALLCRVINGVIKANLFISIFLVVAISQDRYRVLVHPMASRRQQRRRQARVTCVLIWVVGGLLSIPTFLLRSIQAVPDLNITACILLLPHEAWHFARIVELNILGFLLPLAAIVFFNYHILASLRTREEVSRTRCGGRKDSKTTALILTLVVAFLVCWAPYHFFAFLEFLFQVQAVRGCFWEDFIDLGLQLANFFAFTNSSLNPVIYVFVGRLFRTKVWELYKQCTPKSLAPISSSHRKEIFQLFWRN
As to the kind of experiment: Binding Assay: Binding assay using Bradykinin-1 receptor.

In assay [2] the target is T1, B1 bradykinin receptor. Description: Calcium Mobilization Assay: Calcium mobilization assay using Bradykinin-1 receptor. It counts as functional.

`Cc1nc(-c2c(F)cc(Cl)cc2-c2ccc3c(c2)CC[C@@H]3NC(=O)C2(NC(=O)c3nnc(C)o3)CC2)no1`: the Ki on B1 bradykinin receptor [1] was determined as 9.5 nM. The IC50 on B1 bradykinin receptor [2] was found to be 3.4 nM.

The record behind these values is ChEMBL document CHEMBL3639075, “Aryl-benzocycloalkyl amide derivatives” (2013).
